Assay results as given in ChEMBL document CHEMBL1201861, “Genomics of Drug Sensitity in Cancer screening data, Wellcome Trust Sanger Institute”.
Values joined by “and” are separate entries in the source; they are usually repeats but may differ in a detail not shown here. Equal values may be shown once. Where a SMILES comes first, the peptide text is derived from it. The star is where a group is joined. Cbz = O=C(OCc1ccccc1)*

How the values were obtained:
[1] = tested on: LC-1F; assay: cells; format: functional, cell-based, Homo sapiens;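 note: growth inhibition of human LC-1F cells, read out with a cell viability assay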
Description: SANGER: Inhibition of human LC-1F cell growth in a cell viability assay.

[2] = tested on: TUR; assay: cells; format: functional, cell-based, Homo sapiens;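 note: growth inhibition of human TUR cells, read out with a cell viability assay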
Description: SANGER: Inhibition of human TUR cell growth in a cell viability assay.

[3] = tested on: DMS-79; assay: cells; format: functional, cell-based, Homo sapiens
Description: SANGER: Inhibition of human DMS-79 cell growth in a cell viability assay.

[4] = tested on: RPMI 8402; assay: SANGER: Inhibition of human RPMI-8402 cell growth in a cell viability assay.; format: functional, cell-based
[5] = tested on: CPC-N; assay: cells; format: functional, cell-based, Homo sapiens;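 note: growth inhibition of CPC-N cells, with a cell viability assay as the readout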
Description: SANGER: Inhibition of human CPC-N cell growth in a cell viability assay.

[6] = tested on: NCCIT; assay: SANGER: Inhibition of human NCCIT cell growth in a cell viability assay.; format: functional, cell-based
[7] = tested on: EW-12; assay: SANGER: Inhibition of human EW-12 cell growth in a cell viability assay.; format: functional, cell-based
[8] = tested on: SU-DHL-1; assay: SANGER: Inhibition of human SU-DHL-1 cell growth in a cell viability assay.; format: functional, cell-based
[9] = tested on: WSU-NHL; assay: cells; format: functional, cell-based, Homo sapiens;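 note: growth inhibition of human WSU-NHL cells, read out with a cell viability assay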
Description: SANGER: Inhibition of human WSU-NHL cell growth in a cell viability assay.

[10] = tested on: EB-3; assay: cells; format: functional, cell-based, Homo sapiens;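 note: human EB-3 cells, growth inhibition read out via a cell viability assay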
Description: SANGER: Inhibition of human EB-3 cell growth in a cell viability assay.

[11] = tested on: Kasumi 1; assay: cells; format: functional, cell-based, Homo sapiens;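 note: growth inhibition of human Kasumi-1 cells, read out by a cell viability assay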
Description: SANGER: Inhibition of human KASUMI-1 cell growth in a cell viability assay.

[12] = tested on: EW-22; assay: cells; format: functional, cell-based; conditions: Homo sapiens;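 note: growth inhibition of the EW-22 cell line, measured with a cell viability readout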
Description: SANGER: Inhibition of human EW-22 cell growth in a cell viability assay.

[13] = tested on: SKM-1; assay: SANGER: Inhibition of human SKM-1 cell growth in a cell viability assay.; format: functional, cell-based
[14] = tested on: NCI-H2171; assay: cells; format: functional, cell-based, Homo sapiens;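 note: growth inhibition of human NCI-H2171 cells, read out by a cell viability assay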
Description: SANGER: Inhibition of human NCI-H2171 cell growth in a cell viability assay.

[15] = tested on: NCI-H1694; assay: cells; format: functional, cell-based, Homo sapiens;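 note: cell viability assay measuring inhibition of growth in human NCI-H1694 cells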
Description: SANGER: Inhibition of human NCI-H1694 cell growth in a cell viability assay.

[16] = tested on: NCI-H2227; assay: cells; format: functional, cell-based; conditions: Homo sapiens;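 note: growth inhibition of the human cell line, read out with a cell viability assay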
Description: SANGER: Inhibition of human NCI-H2227 cell growth in a cell viability assay.

[17] = tested on: HCC 2998; assay: cells; format: functional, cell-based; conditions: Homo sapiens;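 note: growth inhibition of human HCC2998 cells, measured with a cell viability read-out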
Description: SANGER: Inhibition of human HCC2998 cell growth in a cell viability assay.

Row | Compound | IC50 ([1]; Homo sapiens, LC-1F) | IC50 ([2]; Homo sapiens, TUR) | IC50 ([3]; Homo sapiens, DMS-79) | IC50 ([4]; Homo sapiens, RPMI 8402) | IC50 ([5]; Homo sapiens, CPC-N) | IC50 ([6]; Homo sapiens, NCCIT) | IC50 ([7]; Homo sapiens, EW-12) | IC50 ([8]; Homo sapiens, SU-DHL-1) | IC50 ([9]; Homo sapiens, WSU-NHL) | IC50 ([10]; Homo sapiens, EB-3) | IC50 ([11]; Homo sapiens, Kasumi 1) | IC50 [12] | IC50 ([13]; Homo sapiens, SKM-1) | IC50 ([14]; Homo sapiens, NCI-H2171) | IC50 ([15]; Homo sapiens, NCI-H1694) | IC50 [16] | IC50 [17] | other results
1 | C[C@@H](Oc1cc(-c2cnn(C3CCNCC3)c2)cnc1N)c1c(Cl)ccc(F)c1Cl [CRIZOTINIB] | > 2000 nM | > 2000 nM | > 2000 nM | > 2000 nM | > 2000 nM | > 2000 nM | > 2000 nM | 337 nM | > 2000 nM | > 2000 nM | > 2000 nM | > 2000 nM | > 2000 nM | > 2000 nM | > 2000 nM | – | – | –
2 | Nc1ccccc1NC(=O)c1ccc(CNC(=O)OCc2cccnc2)cc1 [ENTINOSTAT] | 1120 nM | > 5000 nM | 2540 nM | 387 nM | 805 nM | 386 nM | > 5000 nM | 659 nM | > 5000 nM | 4000 nM | > 5000 nM | > 5000 nM | > 5000 nM | 1350 nM | 4130 nM | 3020 nM | 784 nM | –
3 | CC(C)C[C@H](NC(=O)[C@H](Cc1ccccc1)NC(=O)c1cnccn1)B(O)O [BORTEZOMIB] | 3.74 nM | > 20 nM | > 20 nM | 3.5 nM | > 20 nM | 18.4 nM | > 20 nM | 7.24 nM | > 20 nM | 2.66 nM | > 20 nM | > 20 nM | > 20 nM | > 20 nM | 7.58 nM | > 20 nM | 0.412 nM | –
4 | C=CC(=O)N1CCCC(Nc2nc(Nc3ccc(N(C)C(=O)CC)cc3)nc3[nH]cnc23)C1 (centres undefined) | > 10200 nM | > 10200 nM | > 10200 nM | > 10200 nM | > 10200 nM | > 10200 nM | > 10200 nM | > 10200 nM | > 10200 nM | > 10200 nM | > 10200 nM | – | > 10200 nM | > 10200 nM | > 10200 nM | – | – | –
5 | NC(=O)c1cccc(-c2cc(Nc3ccc(OC(F)(F)F)cc3)ncn2)c1 | > 1280 nM | > 1280 nM | > 1280 nM | > 1280 nM | > 1280 nM | > 1280 nM | > 1280 nM | > 1280 nM | > 1280 nM | > 1280 nM | > 1280 nM | – | > 1280 nM | > 1280 nM | > 1280 nM | – | – | –
6 | COc1cc(N2CCC(N3CCN(C)CC3)CC2)ccc1Nc1ncc(Cl)c(Nc2ccccc2S(=O)(=O)C(C)C)n1 [TAE-684] | > 2000 nM | > 2000 nM | > 2000 nM | > 2000 nM | 1850 nM | > 2000 nM | > 2000 nM | 48.6 nM | > 2000 nM | > 2000 nM | > 2000 nM | > 2000 nM | > 2000 nM | > 2000 nM | > 2000 nM | – | – | –
7 | Cc1cc(N2CCOCC2)cc2[nH]c(-c3c(NC[C@@H](O)c4cccc(Cl)c4)cc[nH]c3=O)nc12 | > 5120 nM | > 5120 nM | > 5120 nM | > 5120 nM | 3590 nM | 3830 nM | > 5120 nM | > 5120 nM | > 5120 nM | > 5120 nM | > 5120 nM | – | > 5120 nM | > 5120 nM | > 5120 nM | – | – | –
8 | COc1ccc(N(C(=O)Oc2c(C)cccc2C)c2ccnc(Nc3ccc(N4CCN(C)CC4)cc3)n2)c(OC)c1 | > 5120 nM | > 5120 nM | > 5120 nM | > 5120 nM | > 5120 nM | > 5120 nM | > 5120 nM | > 5120 nM | > 5120 nM | 2160 nM | > 5120 nM | – | > 5120 nM | > 5120 nM | > 5120 nM | – | – | –
9 | Cc1ccc(NC(=O)c2ccc(CN3CCN(C)CC3)cc2)cc1Nc1nccc(-c2cccnc2)n1 [IMATINIB] | > 2000 nM | > 2000 nM | > 2000 nM | > 2000 nM | > 2000 nM | > 2000 nM | > 2000 nM | > 2000 nM | > 2000 nM | > 2000 nM | > 2000 nM | > 2000 nM | > 2000 nM | > 2000 nM | > 2000 nM | – | – | –
10 | CC(C)C[C@@H](C=O)NC(=O)[C@H](CC(C)C)NC(=O)[C@H](CC(C)C)NC(=O)OCc1ccccc1 [MG-132] (Cbz-Leu-Leu-Leu-aldehyde) | – | – | – | – | – | – | – | – | – | – | > 1000 nM | > 1000 nM | – | – | > 1000 nM | > 1000 nM | 939 nM | IC50 ([1]; lc-1f): > 1000 nM; IC50 ([2]; tur): > 1000 nM; IC50 ([3]; dms-79): > 1000 nM; IC50 ([4]; rpmi-8402): > 1000 nM; IC50 ([5]; cpc-n): > 1000 nM; IC50 ([6]; nccit): 318 nM and > 1000 nM; IC50 ([7]; ew-12): > 1000 nM; IC50 ([8]; su-dhl-1): > 1000 nM; IC50 ([9]; wsu-nhl): > 1000 nM; IC50 ([10]; eb-3): > 1000 nM; IC50 ([11]; kasumi 1): > 1000 nM; IC50 ([13]; skm-1): > 1000 nM; IC50 ([14]; nci-h2171): > 1000 nM; IC50 ([15]; nci-h1694): > 1000 nM
